From PubChem BioAssay (NCI) come the findings set out here.

SMILES strings stand for the structures. Several values for one entry are separate records, joined by “and”; a condition that tells them apart may be missing. Equal values may be shown once.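 Values below derive from 48-hour exposures of cells grown in 96-well plates, with endpoints linearly interpolated between the two concentrations bracketing the appropriate inhibition level. GI50 is the concentration that inhibits growth by half. TGI is the concentration that stops growth completely.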

What all share (experiment): inhibition of tumour cell growth, NCI panel, 48 h
The test system of experiment [1] is A549 NSCLC.
The subject of experiment [2] is MOLT-4 leukemia.
Experiment [3] deals with IGROV1 ovarian.
Experiment [4] deals with SK-MEL-5 melanoma.
In experiment [5] the test system is UO-31 renal.
The test system of experiment [6] is ACHN renal.
The test system of experiment [7] is NCI-H522 lung.
Experiment [8] relates to HOP-62 NSCLC.
The subject of experiment [9] is SK-MEL-28 melanoma.
Experiment [10] relates to HCT-116 colon.

For `O=C(NCc1ccncc1)C12CC3CC(C1)CC(c1ccc(Cl)cc1)(C3)C2`, the GI50 is 15 µM in [1]; 8.15 µM in [2]; 13.3 µM in experiment [3]; 5.7 µM in experiment [4]; 10.2 µM in experiment [5]; 12.5 µM in experiment [6]. Moreover, the GI50 in experiment [7] is 13.5 µM; in experiment [8] it was 14 µM; in experiment [9] it was 12.7 µM; in [10], 9.4 µM. The TGI was found to be 30.8 µM in experiment [1]; 27.2 µM in experiment [2]; 29.3 µM in experiment [3]; 18.3 µM in experiment [4]; 22 µM in [5]; 25 µM in [6]. Further, the TGI stood at 28.8 µM in [7], 27.2 µM in experiment [8], 25.5 µM in [9] and 22.3 µM in [10].
As to `NC(N)=NS(=O)(=O)c1ccc(Nc2c3ccccc3nc3c(C(=O)Nc4ccc(S(N)(=O)=O)cc4)ccc(Cl)c23)cc1`, the TGI in experiment [1], in experiment [2], in [3], in [4], in [5] and in experiment [6] was greater than 100 µM throughout. Also, the TGI in experiment [7], in experiment [8], in [9] and in experiment [10] was greater than 100 µM throughout.
Take `CC1OC(OC2C(CO)OC(O[C@H]3CC[C@@]4(C)C(=CC[C@H]5[C@@H]6C[C@@H]7O[C@]8(CC[C@@H](C)CN8)[C@@H](C)[C@@H]7[C@@]6(C)CC[C@@H]54)C3)C(O)C2O)C(O)C(O)C1O` (stereo partly specified): the TGI in [1], in experiment [2], in experiment [3], in experiment [4], in experiment [5] and in experiment [6] was greater than 100 µM in each case. The TGI in experiment [7], in experiment [8], in [9] and in experiment [10] was greater than 100 µM in each case.
In the case of `Fc1cccc2c1cc1ccc3cccc4ccc2c1c34`, the TGI in experiment [1], in experiment [2], in [3], in [4], in experiment [5] and in experiment [6] was greater than 100 µM throughout. Further, the TGI in experiment [7], in [8], in [9] and in experiment [10] was greater than 100 µM each time.
For the compound `C=C1C(=O)O[C@@H]2C1C[C@@H](O)C(=C)CC/C=C(\C)CCC[C@H](C)[C@H]2OC(C)=O` (stereo partly specified), the GI50 in experiment [1] is 22.9 µM; in [2] it was 2.54 µM; in [3], 5.17 µM; in experiment [4] it was 2.76 µM; in experiment [5], 5.18 µM; in experiment [6] it was 1.69 µM. Besides, the GI50 in [7] was 3.55 µM; in [8], 15.4 µM; in [9] it was 4.78 µM; in experiment [10], 1.4 µM. Moreover, the TGI in [1] came out at 48.8 µM; in experiment [2] it was 5.9 µM; in experiment [3], 19.5 µM; in experiment [4] it was 10.8 µM; in [5], 18.4 µM; in experiment [6] it was 3.85 µM. For the same compound, the TGI came out at 12.7 µM in experiment [7], 30.7 µM in experiment [8], 23 µM in experiment [9] and 3.06 µM in [10].
Regarding `O=C1c2ccccc2C(=O)N1C/C=C/CO`, the TGI in experiment [1], in experiment [2], in experiment [3], in experiment [4], in experiment [5] and in experiment [6] was greater than 100 µM in each case. The TGI in [7], in experiment [8], in experiment [9] and in experiment [10] was greater than 100 µM throughout.
`CCc1ccc2c(c1)N(CCO)C1=C(C(=O)OC1)C2c1cccc(Cl)c1` (stereo unspecified): the GI50 in [1] is 0.784 µM; in [2], 1.78 µM; in [3] it was 3.75 µM; in experiment [4], 0.357 µM; in experiment [5], 2.52 µM; in experiment [6] it was 1.24 µM. Further, the GI50 in [7] was 0.242 µM; in [8], 0.774 µM; in experiment [9], 0.613 µM; in [10], 0.498 µM. In addition, the TGI in [1] came out at 18.6 µM; in experiment [2], 48.5 µM; in [3], 37.6 µM; in experiment [4] it was 7.56 µM; in [5], 20.9 µM; in [6], 31.6 µM. For the same compound, the TGI in experiment [7] was 2.76 µM; in [8], 15.8 µM; in [9], 17.5 µM; in [10] it was 13.1 µM.
In the case of `S=C(N/N=C(/c1ccccc1)c1ccccn1)N1CCCCCC1`, the GI50 in experiment [1] was 0.0318 µM; in [2], less than 0.001 µM; in experiment [3], less than 0.001 µM; in [4], 0.0199 µM; in [6], 0.00216 µM; in experiment [7], 1.28 µM. In addition, the GI50 in [9] was 0.863 µM and 0.639 µM; in [10], less than 0.001 µM. For the same compound, the TGI in experiment [1] is 1.7 µM and 2.25 µM; in experiment [2] it was 0.00191 µM; in [3], 1.06 µM and 1.98 µM; in [4], 0.138 µM and 1.17 µM; in experiment [5], 1.75 µM; in experiment [6] it was 1.58 µM and 1.47 µM. Also, the TGI in experiment [7] is 3.48 µM and 1.13 µM; in experiment [8], 1.91 µM; in [9], 2.41 µM and 2.15 µM; in experiment [10] it was 1.43 µM and 1.38 µM.
For the compound `CN(C)CCOC(c1ccccc1)c1ccccc1`, the GI50 in [1] is 35.9 µM; in experiment [3] it was 29.3 µM; in experiment [4] it was 15.7 µM; in experiment [5], 32.6 µM; in [7], 25.6 µM; in experiment [8] it was 36 µM. Also, the GI50 in [9] is 18.1 µM; in [10] it was 32.1 µM. The TGI in experiment [1] is 51.7 µM and > 100 µM; in [2], greater than 100 µM; in experiment [3] it was 46.3 µM and > 100 µM; in experiment [4], 28.2 µM and > 100 µM; in experiment [5], 47.4 µM and > 100 µM; in experiment [6], greater than 100 µM. For the same compound, the TGI in experiment [7] was 44.3 µM and > 100 µM; in experiment [8] it was 50.9 µM and > 100 µM; in experiment [9], 35.3 µM and > 100 µM; in experiment [10], 48.7 µM and > 100 µM.
Take `O=c1oc2ccc(-n3c(=O)c4ccccc4c4ccccc4c3=O)cc2c2ccccc12`: the TGI in experiment [1], in [2], in [3], in experiment [4], in [5] and in experiment [6] was greater than 100 µM throughout. Moreover, the TGI in experiment [7], in experiment [8], in experiment [9] and in experiment [10] was greater than 100 µM in each case.
On to `O=C(Nc1nc2ccc(F)cc2s1)c1cccnc1Nc1ccc(Cl)cc1`, for which the GI50 is 3.35 µM in [1]; 2.47 µM in experiment [2]; 2.6 µM in [3]; 1.39 µM in experiment [4]; 2.36 µM in experiment [5]; 3.08 µM in experiment [6]. Moreover, the GI50 is 2.17 µM in [7], 2.55 µM in experiment [8], 3.47 µM in experiment [9] and 1.99 µM in experiment [10]. Also, the TGI in [1] is greater than 33.7 µM; in [2], greater than 27 µM; in experiment [3] it was greater than 34.1 µM; in [4], 3.38 µM; in experiment [5] it was greater than 21.5 µM; in [6] it was greater than 100 µM. In addition, the TGI was greater than 24.2 µM in [7], 9.08 µM in [8], greater than 79.3 µM in [9] and greater than 29.2 µM in [10].
As to `O=C(COC(=O)c1cccc2c(=O)c3ccccc3[nH]c12)Nc1ccccc1`, the TGI is greater than 100 µM in experiment [1]; 43.8 µM in experiment [2]; greater than 100 µM in experiment [3]; 42.7 µM in experiment [4]; 65.4 µM in experiment [5]; greater than 100 µM in [6]. Further, the TGI is 73.4 µM in experiment [7], greater than 100 µM in experiment [8], greater than 100 µM in experiment [9] and 88.7 µM in experiment [10].
With `N#C/C(=C/Sc1ccccc1)C(=O)O`, the TGI in experiment [1] was greater than 100 µM; in [2], greater than 100 µM; in experiment [3] it was 37.2 µM; in [4] it was greater than 100 µM; in experiment [5], 41.4 µM; in [6], greater than 100 µM. In addition, the TGI is 23.4 µM in experiment [7], greater than 100 µM in [8], greater than 100 µM in experiment [9] and 55.8 µM in experiment [10].
